Tests used:
[1] = test system: differentiated L6-myotubes; assay: Glucose uptake screen (Biological example 1 of WO 2019/053427); format: cell-based; details: compound at 10 μM, activity relative to isoproterenol at 10 μM, read-out: Biological example 1 of WO 2019/053427 (GU)
In short: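 Rat L6 myoblasts were differentiated into myotubes over 7 days in 2% FBS, then serum-starved overnight. Cells were stimulated with 1×10^−5 M compound plus β2 antagonist ICI-118551 for 1 h 40 min and re-dosed for 20 min in glucose-free medium. Uptake of 50 nM ^3H-2-deoxyglucose over 10 min was counted after NaOH lysis.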

[2] = test system: differentiated L6-myotubes; assay: cAMP production relative to isoprenaline (Biological example 2 of WO 2019/053427); format: cell-based; details: 0.25 h, compound at 10 μM, activity relative to isoproterenol at 10 μM
In short: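 Differentiated L6 myotubes stimulated 15 min with test compound or isoprenaline, each at final 1×10^−5 M, in HBSS with 1% BSA, 5 mM HEPES, 1 mM IBMX, pH 7.4. cAMP production by the compound expressed relative to that induced by the same concentration of isoprenaline.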

β2-adrenergic receptor = biological target: T1, β2-adrenergic receptor (Rattus norvegicus, UniProt P10608); assay: Glucose uptake in the presence of a selective β2-adrenergic receptor inhibitor (Biological Example 1); format: cell-based; details: L6-myotubes; Compound A (2HCl salt) 1×10^−5 M in the presence of ICI-118551; FIG. 1
T1 construct: L6-myoblasts were grown in Dulbecco's Modified Eagle's Medium (DMEM); endogenous in cells; host or cells: L6 myoblasts differentiated into myotubes
Procedure: L6-myoblasts were grown in Dulbecco's Modified Eagle's Medium (DMEM) containing 1 g/L glucose supplemented with 10% fetal bovine serum (FBS), 2 mM L-glutamine, 50 U/mL penicillin, 50 g/mL streptomycin and 10 mM HEPES. Cells were plated at 1x 10^5 cells per mL in 24-well plates. After reaching 90% confluence the cells were grown in medium containing 2% FBS for 7 days where upon cells differentiated into myotubes. […] After 1 h 40 min the cells were washed with warm, glucose free medium twice and another portion of agonist was added to the glucose free medium. After another 20 min of incubation the cells were exposed to 50 nM ^3H-2-deoxyglucose for 10 min before washed in ice cold glucose free medium three times and lysed in 400 µl/well 0.2 M NaOH for 1 h at 60° C.

[3] = test system: male C57Bl/6N mice fed with high-fat, high-sucrose diet; assay: Combination of Compound A and liraglutide in high-fat, high-sucrose diet fed mice (Biological Example 2); format: in vivo; details: Compound A hemi-tartrate 1 mg/kg with liraglutide 0.1 mg/kg, subcutaneously, daily for 2 weeks; compared with liraglutide; FIGS. 2-5
Procedure: 2.5 Months old male C57Bl/6N mice were grouped caged (4-5 mice per cage), kept at 30° C. and fed with high-fat, high-sucrose diet (45% fat) for 5.5 months. The mice were divided into four groups (2-3 mice per cage) according to their fasting blood glucose levels, glucose tolerance, body weight, body fat and lean mass, and treated daily for 2 weeks, subcutaneously with either vehicle, liraglutide (0.1 mg/kg), Compound A (1 mg/kg), or a mixture of liraglutide (0.1 mg/kg) and Compound A (1 mg/kg). The mice were fasted for 5 h and fasting blood glucose and fasting serum insulin levels were recorded. Glucose (2.5 g/kg lean mass) was injected ip and glucose levels were recorded after 15, 30, 60, 90 and 120 min. The results were used to calculate HOMA-IR (fasting blood glucose (mM)×fasting insulin (μIU/mL)/22.5) and glucose tolerance (area under the curves 0-120 min over the 5.5 mM blood glucose level).

[4] = test system: differentiated L6-myotubes; details: as described in WO 2019/053427, Biological Example 1 therein; cited from earlier work
[5] = test system: differentiated L6-myotubes; details: as described in WO 2019/053427, Biological Example 2 therein; cited from earlier work

T1 sequence (P10608 whole entry): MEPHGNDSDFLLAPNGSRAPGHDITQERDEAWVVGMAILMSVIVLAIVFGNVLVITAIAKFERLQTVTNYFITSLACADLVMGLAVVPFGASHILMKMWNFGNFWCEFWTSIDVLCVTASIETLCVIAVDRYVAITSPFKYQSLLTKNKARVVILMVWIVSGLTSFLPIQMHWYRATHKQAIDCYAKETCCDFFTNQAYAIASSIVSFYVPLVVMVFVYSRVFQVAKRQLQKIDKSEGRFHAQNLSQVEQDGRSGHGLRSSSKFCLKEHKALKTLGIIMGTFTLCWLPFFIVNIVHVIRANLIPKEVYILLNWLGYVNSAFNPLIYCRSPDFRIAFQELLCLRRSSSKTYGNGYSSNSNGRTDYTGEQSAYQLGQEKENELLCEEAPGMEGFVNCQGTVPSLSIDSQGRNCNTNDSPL

O[C@@H](c1cccc(F)c1)C12CCC(C/C=C/c3ccccc3)(CC1)N2 [Compound 533, (S)-{4-[(E)-3-phenyl-2-propenyl]-7-azabicyclo[2.2.1]hept-1-yl}(m-fluorophenyl)methanol]
Emax at 10 µM [1]: < 25%
Emax at 10 µM [2]: < 25%

O[C@H](c1cccc(F)c1)C12CCC(C/C=C/c3ccccc3)(CC1)N2 [Compound 534, (R)-{4-[(E)-3-phenyl-2-propenyl]-7-azabicyclo[2.2.1]hept-1-yl}(m-fluorophenyl)methanol]
Emax at 10 µM [1]: > 75%
Emax at 10 µM [2]: < 25%

O[C@@H](c1cccc(F)c1)C12CCC(CCCc3ccccc3)(CC1)N2 [Compound 535, (S)-(m-fluorophenyl){4-(3-phenylpropyl)-7-azabicyclo[2.2.1]hept-1-yl}methanol]
Emax at 10 µM [1]: 25 to 50%
Emax at 10 µM [2]: < 25%

O[C@H](c1cccc(F)c1)C12CCC(CCCc3ccccc3)(CC1)N2 [Compound 536, (R)-(m-fluorophenyl){4-(3-phenylpropyl)-7-azabicyclo[2.2.1]hept-1-yl}methanol]
Emax at 10 µM [1]: > 75%
Emax at 10 µM [2]: 25 to 50%

CS(=O)(=O)N(Cc1ccccc1)CC12CCC([C@H](O)c3cccc(F)c3)(CC1)N2 [Compound 537, (R)-(4-{[(benzyl)-N-mesylamino]methyl}-7-azabicyclo[2.2.1]hept-1-yl)(m-fluorophenyl)methanol]
Emax at 10 µM [1]: 50 to 75%
Emax at 10 µM [2]: 25 to 50%

CS(=O)(=O)N(Cc1ccccc1)CC12CCC([C@@H](O)c3cccc(F)c3)(CC1)N2 [Compound 538, (S)-(4-{[(benzyl)-N-mesylamino]methyl}-7-azabicyclo[2.2.1]hept-1-yl)(m-fluorophenyl)methanol]
Emax at 10 µM [1]: 50 to 75%
Emax at 10 µM [2]: < 25%

COc1ccc(CCC23CCC([C@@H](O)c4cccc(F)c4)(CC2)N3)cc1 [Compound 539, (S)-(m-fluorophenyl){4-[2-(p-methoxyphenyl)ethyl]-7-azabicyclo[2.2.1]hept-1-yl}methanol]
Emax at 10 µM [1]: < 25%
Emax at 10 µM [2]: < 25%

COc1ccc(CCC23CCC([C@H](O)c4cccc(F)c4)(CC2)N3)cc1 [Compound 540, (R)-(m-fluorophenyl){4-[2-(p-methoxyphenyl)ethyl]-7-azabicyclo[2.2.1]hept-1-yl}methanol]
Emax at 10 µM [1]: 50 to 75%
Emax at 10 µM [2]: 25 to 50%

COc1ccc(CCC23CCC([C@@H](O)c4cncc(F)c4)(CC2)N3)cc1 [Compound 541, (S)-(5-fluoro-3-pyridyl){4-[2-(p-methoxyphenyl)ethyl]-7-azabicyclo[2.2.1]hept-1-yl}methanol]
Emax at 10 µM [1]: < 25%
Emax at 10 µM [2]: < 25%

COc1ccc(CCC23CCC([C@H](O)c4cncc(F)c4)(CC2)N3)cc1 [Compound 542, (R)-(5-fluoro-3-pyridyl){4-[2-(p-methoxyphenyl)ethyl]-7-azabicyclo[2.2.1]hept-1-yl}methanol]
Emax at 10 µM [1]: 50 to 75%
Emax at 10 µM [2]: 25 to 50%

O[C@@H](c1cncc(F)c1)C12CCC(CCc3ccc(OC(F)(F)F)cc3)(CC1)N2 [Compound 543, (S)-(5-fluoro-3-pyridyl){4-[2-(p-trifluoromethoxyphenyl)ethyl]-7-azabicyclo[2.2.1]hept-1-yl}methanol]
Emax at 10 µM [1]: < 25%
Emax at 10 µM [2]: < 25%

O[C@@H](c1cccc(F)c1)C12CCC(CCc3ccc(OC(F)(F)F)cc3)(CC1)N2 [Compound 544, (S)-(m-fluorophenyl){4-[2-(p-trifluoromethoxyphenyl)ethyl]-7-azabicyclo[2.2.1]hept-1-yl}methanol]
Emax at 10 µM [1]: < 25%
Emax at 10 µM [2]: < 25%

O[C@H](c1cncc(F)c1)C12CCC(CCc3ccc(OC(F)(F)F)cc3)(CC1)N2 [Compound 545, (R)-(5-fluoro-3-pryidyl){4-[2-(p-trifluoromethoxyphenyl)ethyl]-7-azabicyclo[2.2.1]hept-1-yl}methanol]
Emax at 10 µM [1]: < 25%
Emax at 10 µM [2]: < 25%

O[C@H](c1cccc(F)c1)C12CCC(CCc3ccc(OC(F)(F)F)cc3)(CC1)N2 [Compound 546, (R)-(m-fluorophenyl){4-[2-(p-trifluoromethoxyphenyl)ethyl]-7-azabicyclo[2.2.1]hept-1-yl}methanol]
Emax at 10 µM [1]: < 25%
Emax at 10 µM [2]: < 25%

O[C@@H](c1ccccc1F)C12CCC(CCc3cccnc3)(CC1)N2 [Compound 547, (S)-(o-fluorophenyl){4-[2-(3-pyridyl)ethyl]-7-azabicyclo[2.2.1]hept-1-yl}methanol]
Emax at 10 µM [1]: > 75%
Emax at 10 µM [2]: < 25%

CC(C)(C)NC[C@H](O)c1cncc(F)c1 [Compound A, (R)-2-(tert-Butylamino)-1-(5-fluoropyridin-3-yl)ethan-1-ol]
receptor mediating the glucose uptake promoted by the compound (β2-adrenergic receptor): mediated through the β2-adrenergic receptor
effects on glucose homeostasis (glycemia, glucose tolerance and insulin sensitivity) [3]: additional positive effects
glucose uptake [4]: significant glucose uptake
cAMP levels induced [5]: without inducing significant levels of cAMP
